Assay results reported in ChEMBL document CHEMBL1201862, “PubChem BioAssay data set” (2004).
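Test compounds were applied to cells in 96-well plates for 48 hours at 5 doses. GI50 marks 50% less growth.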 The source made the active and inactive calls. No stated cut-off is given here; in the data, active = GI50 up to about 1.1 µM and inactive = higher.

How the values were obtained:
Experiment in all cases: NCI tumour cell line growth inhibition, 48 h
M14 = tested on: M14
TK-10 = tested on: TK-10
HOP-62 = tested on: HOP-62
UACC-257 = tested on: UACC-257
OVCAR-5 = tested on: OVCAR-5
NCI-H522 = tested on: NCI-H522
HL-60 = tested on: HL-60
Malme-3M = tested on: Malme-3M
SK-MEL-5 = tested on: SK-MEL-5
A498 = tested on: A498
SK-MEL-2 = tested on: SK-MEL-2
RPMI-8226 = tested on: RPMI-8226
HT-29 = tested on: HT-29
COLO 205 = tested on: COLO 205
SF-539 = tested on: SF-539
SF-295 = tested on: SF-295
U-251 = tested on: U-251
OVCAR-3 = tested on: OVCAR-3
SR = tested on: SR

Measured: GI50

CCN(CC)Cc1cc(Nc2c3ccccc3nc3c4ccccc4n(C)c23)ccc1O
inactive: M14 1.92 µM | TK-10 13.9 µM | HOP-62 12 µM | UACC-257 10.4 µM | OVCAR-5 10.1 µM | NCI-H522 2.58 µM | HL-60 3.46 µM | Malme-3M 13.7 µM | SK-MEL-5 2.61 µM | A498 13.7 µM | SK-MEL-2 20.7 µM | RPMI-8226 3.67 µM | HT-29 5.32 µM | COLO 205 4.73 µM | SF-539 3.87 µM | SF-295 10 µM | U-251 10.8 µM

CCCCCCCCCCCCCCCCCCOCC1(COP(=O)([O-])OCC[N+](C)(C)C)CCCO1 (centres undefined)
inactive: M14 3.14 µM | TK-10 1.6 µM | HOP-62 2.99 µM | UACC-257 13.9 µM | OVCAR-5 12.4 µM | NCI-H522 1.96 µM | HL-60 2.18 µM | Malme-3M 13.3 µM | SK-MEL-5 14.4 µM | A498 3.46 µM | SK-MEL-2 10.9 µM | RPMI-8226 2.79 µM | OVCAR-3 4.22 µM | HT-29 4.41 µM | COLO 205 1.87 µM | SF-539 15.8 µM | SF-295 2.34 µM | U-251 2.33 µM

Cc1cc2c(=O)cc(-c3ccc(C(=O)O)cc3)oc2c(C(=O)O)c1C
inactive: M14 > 100 µM | TK-10 > 100 µM | HOP-62 > 100 µM | UACC-257 > 100 µM | OVCAR-5 > 100 µM | NCI-H522 > 100 µM | HL-60 > 100 µM | Malme-3M > 100 µM | SK-MEL-5 > 100 µM | SK-MEL-2 > 100 µM | RPMI-8226 > 100 µM | OVCAR-3 > 100 µM | SR > 100 µM | HT-29 > 100 µM | COLO 205 > 100 µM | SF-539 > 100 µM | SF-295 > 100 µM | U-251 > 100 µM

COc1ccc(Br)c(N/N=C2\CCCNC2=O)c1
inactive: M14 > 100 µM | TK-10 57 µM | HOP-62 > 100 µM | UACC-257 > 100 µM | OVCAR-5 44.6 µM | NCI-H522 58.5 µM | HL-60 68.5 µM | Malme-3M > 100 µM | SK-MEL-5 96.6 µM | SK-MEL-2 > 100 µM | RPMI-8226 51.5 µM | OVCAR-3 > 100 µM | SR 4.71 µM | HT-29 > 100 µM | COLO 205 48 µM | SF-539 95.5 µM | SF-295 > 100 µM | U-251 86.3 µM

C[C@]12Cc3cn[nH]c3C(=O)C1CC[C@@H]1C2CC[C@@]2(C)C1CC[C@@H]2O (some centres undefined)
inactive: M14 > 100 µM | TK-10 > 100 µM | HOP-62 > 100 µM | UACC-257 > 100 µM | OVCAR-5 > 100 µM | NCI-H522 > 100 µM | HL-60 > 100 µM | Malme-3M > 100 µM | SK-MEL-5 > 100 µM | A498 > 100 µM | SK-MEL-2 1.23 µM | RPMI-8226 > 100 µM | OVCAR-3 > 100 µM | HT-29 > 100 µM | COLO 205 > 100 µM | SF-539 > 100 µM | SF-295 > 100 µM | U-251 > 100 µM

COC(=O)/N=C(\NC(=O)OC)Nc1ccc(Oc2ccccc2)cc1NC=O
inactive: TK-10 9.57 µM | UACC-257 2.48 µM | OVCAR-5 > 100 µM | RPMI-8226 2.55 µM
active: M14 0.401 µM | HOP-62 0.912 µM | NCI-H522 0.253 µM | HL-60 0.206 µM | Malme-3M 0.579 µM | SK-MEL-5 0.341 µM | A498 0.294 µM | OVCAR-3 0.327 µM | HT-29 0.348 µM | COLO 205 0.2 µM | SF-539 0.433 µM | SF-295 0.439 µM | U-251 0.333 µM

COC(=O)[C@@]12C=CC(=O)[C@H]3C[C@@H](C(C(C)C)C1)[C@]32OC (some centres undefined)
inactive: M14 > 100 µM | TK-10 > 100 µM | HOP-62 > 100 µM | UACC-257 > 100 µM | OVCAR-5 > 100 µM | HL-60 > 100 µM | Malme-3M > 100 µM | SK-MEL-5 > 100 µM | A498 > 100 µM | SK-MEL-2 > 100 µM | RPMI-8226 > 100 µM | OVCAR-3 > 100 µM | HT-29 > 100 µM | COLO 205 > 100 µM | SF-539 > 100 µM | SF-295 > 100 µM | U-251 > 100 µM

N#Cc1ccccc1Nc1ccccc1S
inactive: TK-10 > 100 µM | HOP-62 46.7 µM | UACC-257 57.3 µM | OVCAR-5 29.4 µM | HL-60 25.3 µM | Malme-3M 20.5 µM | SK-MEL-5 17.9 µM | A498 53.7 µM | SK-MEL-2 56.4 µM | SR 19.3 µM | HT-29 57.8 µM | COLO 205 > 100 µM | SF-539 17.7 µM | SF-295 23.9 µM | U-251 > 10 µM

COC1C(O)C(C)OC(OC2C(Oc3cccc4c(O)c5c(=O)oc6ccc(C)c7c(=O)oc(c34)c5c67)OC(C)C3O[C@H](c4ccccc4)OC32)C1O (some centres undefined)
active: M14 0.851 µM | TK-10 1.06 µM | HOP-62 0.0441 µM | HL-60 0.098 µM | Malme-3M 0.845 µM | SK-MEL-5 0.131 µM | A498 0.0731 µM | SK-MEL-2 0.824 µM | RPMI-8226 0.0796 µM | OVCAR-3 0.195 µM | HT-29 0.0877 µM | SF-539 0.0746 µM | SF-295 0.103 µM | U-251 0.196 µM
inactive: OVCAR-5 1.48 µM

CC1(C)SCc2nc3ncccc3n21
inactive: M14 > 100 µM | TK-10 > 100 µM | HOP-62 > 100 µM | UACC-257 > 100 µM | OVCAR-5 > 100 µM | NCI-H522 > 100 µM | HL-60 > 100 µM | Malme-3M > 100 µM | SK-MEL-5 > 100 µM | A498 > 100 µM | SK-MEL-2 > 100 µM | RPMI-8226 > 100 µM | OVCAR-3 > 100 µM | HT-29 > 100 µM | COLO 205 > 100 µM | SF-539 > 100 µM | SF-295 > 100 µM | U-251 > 100 µM

COc1ccc2oc3cccc(NCCN(C)C)c3c(=O)c2c1
inactive: M14 15.8 µM | TK-10 14.8 µM | HOP-62 15.2 µM | UACC-257 16.3 µM | OVCAR-5 12.3 µM | HL-60 9.68 µM | Malme-3M 15.6 µM | SK-MEL-5 16.7 µM | A498 19.1 µM | SK-MEL-2 16.5 µM | RPMI-8226 12.6 µM | OVCAR-3 14.7 µM | SR 8.85 µM | HT-29 7.83 µM | COLO 205 5.6 µM | SF-539 14.3 µM | SF-295 16.1 µM | U-251 12.7 µM

Cc1ccc(C(=O)NC2CCCCC2)cc1/N=N/N(C)C
inactive: M14 > 100 µM | TK-10 > 100 µM | HOP-62 > 100 µM | UACC-257 > 100 µM | NCI-H522 74 µM | SK-MEL-5 > 100 µM | SK-MEL-2 > 100 µM | OVCAR-3 > 100 µM | HT-29 > 100 µM | SF-539 > 100 µM | SF-295 > 100 µM | U-251 > 100 µM

CC(C)(C)C1=CC(=NNC(=S)NCc2ccccc2)C=C(C(C)(C)C)C1=O
inactive: M14 > 100 µM | TK-10 > 100 µM | HOP-62 > 100 µM | UACC-257 91.6 µM | HL-60 > 100 µM | Malme-3M > 100 µM | SK-MEL-5 37.6 µM | A498 77.4 µM | SK-MEL-2 > 100 µM | RPMI-8226 > 100 µM | OVCAR-3 > 100 µM | SR > 100 µM | HT-29 73.1 µM | COLO 205 51.5 µM | SF-539 > 100 µM | SF-295 86.3 µM | U-251 94.2 µM

CC(N)C(=O)OCN1C(=O)C2C3C=CC(C2C1=O)C1C2C(=O)N(COC(=O)C(C)N)C(=O)C2C31 (centres undefined)
inactive: M14 20.9 µM | TK-10 71.6 µM | HOP-62 > 100 µM | UACC-257 31.4 µM | OVCAR-5 47.8 µM | HL-60 29.8 µM | SK-MEL-5 18.1 µM | SK-MEL-2 20.6 µM | RPMI-8226 23.9 µM | OVCAR-3 33.6 µM | SR 5.57 µM | HT-29 34.6 µM | COLO 205 19.4 µM | SF-539 22.9 µM | SF-295 > 100 µM | U-251 24.5 µM

COc1cc2c(c(OC)c1OC)-c1ccc(SC)c(=O)cc1[C@@H](NC(=O)c1ccc(Cl)cc1)CC2
active: M14 < 0.01 µM | HOP-62 < 0.01 µM | UACC-257 < 0.01 µM | HL-60 < 0.01 µM | Malme-3M < 0.01 µM | SK-MEL-5 < 0.01 µM | A498 < 0.01 µM | SK-MEL-2 < 0.01 µM | RPMI-8226 < 0.01 µM | OVCAR-3 < 0.01 µM | SR < 0.01 µM | HT-29 < 0.01 µM | COLO 205 < 0.01 µM | SF-539 < 0.01 µM | SF-295 < 0.01 µM | U-251 < 0.01 µM
inactive: TK-10 2.36 µM

O=C1CCC2(c3ccccc3)Nc3ccccc3N12 (centres undefined)
inactive: M14 > 100 µM | TK-10 > 100 µM | HOP-62 > 100 µM | UACC-257 > 100 µM | OVCAR-5 > 100 µM | NCI-H522 > 100 µM | HL-60 > 100 µM | Malme-3M > 100 µM | SK-MEL-5 > 100 µM | A498 > 100 µM | SK-MEL-2 > 100 µM | RPMI-8226 > 100 µM | OVCAR-3 > 100 µM | HT-29 > 100 µM | COLO 205 > 100 µM | SF-539 > 100 µM | SF-295 > 100 µM | U-251 > 100 µM
